# In patent publication US20200129476A1, “PARP Inhibitor in Combination with a Glucocorticoid and/or Ascorbic Acid and/or a Protein Growth Factor for the Treatment of Impaired Wound Healing” (AKRIBES BIOMEDICAL GMBH, priority 2017, published 2020):
# Entries after “also recorded” stand apart in the source; their conditions may differ.
# Columns and labels:
# [1] = tested on: primary human dermal fibroblasts (HDF); assay: Primary human dermal fibroblast (HDF) proliferation assay (2D), with or without wound exudate; format: cell-based; conditions: for HDF proliferation, PARP inhibitor alone: talazoparib 1 μM
# Protocol: Primary human dermal fibroblasts (HDF) were purchased from CELLnTEC, Bern. They were routinely grown in Dulbecco's modified Eagle's medium (DMEM) containing 10% FCS, 2 mM glutamine, and 100 U/ml penicillin/100 μg/ml streptomycin. Media, antibiotics, and glutamine were bought from Lonza. The cells were used at passage 5-15. Cells were trypsinized and seeded at 5000 cells/well in 200 μl into the inner wells of 96-well plates. The outer wells were loaded with sterile water. The cells were allowed to adhere overnight and then incubated for 72 hours at 37° C. under the following conditions: graded compound concentrations or 20 ng/ml PDGF-BB (Tonbo Biosciences) in the absence or presence of different dilutions of sterile-filtered WE in medium. For control samples, 200p1 medium was added instead of specific stimuli. Alternatively, the cells were seeded into 384-well plates at 2500 cells/well directly together with test compounds or growth factors and WE or medium in a total volume of […].
# At the end of the 72-hour incubation period, supernatants were removed for the determination of IL-1ß, and the cells were fixed with 4% paraformaldehyde (Morphisto) for 15 minutes at room temperature and washed 3 times with PBS. A control plate was fixed after the overnight adherence of the cells (day 1) to determine the starting cell number.
# Total cellular protein was determined as a measure of cell number by staining the fixed cells with sulforhodamine B (SRB, Sigma). A 0.4% SRB solution in 1% acetic acid was added to the wells for 30 minutes. The wells were then washed with 1 acetic acid until the wash solution remained colorless. After drying, the dye was eluted with 10 mM Tris.HCl, pH8.5, and absorbance was measured either at 550 or 492 nm for lower and higher cell densities, respectively. The average absorbance of the sample representing the day 1 starting cell number (for 96-well plates) was subtracted from the absorbance values of the WE-treated cells.
# All experiments were carried out in triplicate for each sample and concentration, and means±standard deviation (SD) were used for the evaluation of the experiment. Results are expressed as percentage of control values for unstimulated cells.
# (§1) Low molecular weight compounds (see list in Table 1) were dissolved in DMSO (Bioreagent for cell culture, Sigma) at 10 mM or 100 mM and diluted at least 1:1000 in medium for cellular assays (final DMSO concentration ≤0.1%).
# (§2) Cells were incubated with compounds for 72 hours in proliferation assays and up to 8 days for FDM assay (refreshed after 4 days). When compounds were tested for their effect on WE stimulation, the incubation of cells with compounds was started and ended simultaneously with WE-incubation.
# macrophages = assay: Fibroblast-macrophage coculture with wound exudate: live cells in FACS CD45-gate; format: cell-based, human; conditions: WE #78
# Protocol: CD14^+ monocytes, isolated from PBMC of healthy donors by magnetic bead separation were incubated either alone or in the presence of primary human dermal fibroblasts (CelINTec) or fibroblast-derived matrices (FDM). FDM had been generated from primary human dermal fibroblasts by a 3-week incubation with the growth supplements vitamin C or insulin and EGF (vitamin C: 2-phospho-L-ascorbic acid trisodium salt, 100 μg/ml; human EGF, 5 ng/ml; human insulin, 5 μg/ml). Alternatively, fibroblast monolayer cultures can be used as well. […]
# Supernatants were harvested and frozen for cytokine determination by ELISA, and cells were harvested and subjected to FACS analysis, gating on the monocyte population. Geometric means or mean fluorescence intensities (MFI) were used to quantify surface marker expression.
# Cells were harvested and resuspended in FACS buffer (PBS containing 2% FCS). […] Co-staining with CD45 eFluor (#506 69-0459-42) was used to distinguish macrophages from primary human fibroblasts when analyzed from co-cultures. After washing cells with FACS buffer, they were fixed with 1% paraformaldehyde in PBS and stored at 4° C. in the dark until data were acquired on a Gallios flow cytometer from Beckman Coulter and analyzed with the Kaluza analysis software 1.3.
# [2] = tested on: primary human dermal fibroblasts (HDF); assay: Fibroblast-derived matrix (FDM) formation assay (3D), with or without wound exudate; format: cell-based
# Protocol: HDF cells were seeded at 5000 cells/well on day −3 into 96-well tissue culture plates (1250 cells/well for 384-well plates), which had been pre-coated for 1 hour at 37° C. with 0.2% gelatin solution (Sigma). When the cells reached confluence (=day 0), a matrix promoting supplement (vitamin C: 2-phospho-L-ascorbic acid trisodium salt, 100 μg/ml; Sigma) was added together with test samples containing PDGF-BB, TGF-ß1 or graded concentrations of compounds −/+WE as described for the HDF proliferation assay. After 4 days, medium was replaced by fresh vitamin C- and stimulus- as well as compound-containing medium, maintaining the conditions initiated on day 0. TGF-ß1 and PDGF-BB were included as positive controls to promote FDM formation and cell growth, respectively. After a total incubation time of 8 days, FDM production was measured in fixed cultures via SRB staining and evaluated as described above. In some cases, the experiment was stopped and evaluated already on day 4.
# as §1, with “≤0.1%). Compounds were typically tested in half-logarithmic dilution series (1:3.33), starting at 10 μM or 100 μM as the highest compound concentration.” for “≤0.1%).”
# as §2
structure (smiles),measurement,setting,value
"C[C@]1(c2nc3c(C(N)=O)cccc3[nH]2)CCCN1 [veliparib, 2-((2R)-2-methylpyrrolidin-2-yl)-1H-benzimidazole-4-carboxamide]",cell proliferation under wound exudate-induced inhibition,"[1]; FIG. 22, WE #43 and #78 used with veliparib",enhanced cell proliferation
same,"HDF proliferation, PARP inhibitor plus PDGF","[1]; PARP inhibitor dose series + PDGF 20 ng/ml, WE #78 (FIG. 18)",even further enhanced by the addition of PDGF
same,effect on fibroblast proliferation compared across patients,"[1]; WE from patients #49, #43, #78, #27",most prominent in the two patients with diabetes
same,reproducibility of effect on fibroblast proliferation,[1]; WE samples #77 and #78 of one patient (day 1 and day 8),reproducible in different samples of the same patient
same,fibroblast (HDF) proliferation,[1]; presence of WE #43,strongly beneficial effects
same,fibroblast (HDF) proliferation,[1]; presence of WE #78 (diabetic patient),completely reversed inhibition of wound exudate (WE)-induced fibroblast proliferation; also recorded: dose-dependent increase of HDF proliferation
same,fibroblast (HDF) proliferation,"[1]; presence of WE #78 (diabetic patient), listed as Veliparib",completely reversed inhibition of wound exudate (WE)-induced fibroblast proliferation; also recorded: strongly beneficial effects
same,fibroblast (HDF) proliferation,"[1]; presence of wound exudate (WE) of patients, several or unspecified WE",could be confirmed in a number of further wound exudate samples from other patients
same,"HDF proliferation, PARP inhibitor plus PDGF","[1]; veliparib 10 μM, talazoparib 1 μM + PDGF 20 ng/ml, WE #78 (FIG. 17B)",additively or synergistically enhanced by PDGF
same,"HDF proliferation, PARP inhibitor alone","[1]; veliparib 10 μM, WE #78 (FIG. 17B)",induce proliferation
same,"HDF proliferation, PARP inhibitor alone","[1]; veliparib 10 μM, absence of WE (FIG. 17A)",no or an inhibitory effect on fibroblasts on their own
same,"HDF proliferation, PARP inhibitor alone","[1]; veliparib 10 μM, absence of WE (FIG. 17A), listed as Veliparib",no or even an inhibitory effect on fibroblasts on their own
same,"percentage of live cells in the FACS CD45-gate, veliparib with dexamethasone",macrophages; veliparib 10 μM + dexamethasone 10 nM,further increased
same,percentage of live cells in the FACS CD45-gate,macrophages; veliparib 10 μM or dexamethasone 10 nM alone,increased
same,"FDM formation, veliparib combined with glucocorticoid","[2]; WE #49, non-diabetic, non-immunosuppressed patient (FIG. 8)","could be enhanced with glucocorticoids in another non-diabetic and non-immunosuppressed patient, but not vice versa; also recorded: could be enhanced with glucocorticoids, but not vice versa"
same,"FDM formation, veliparib combined with glucocorticoid","[2]; WE #78, patient with diabetes, immunosuppression after kidney transplantation (FIG. 7)",enhances the effect of glucocorticoids
same,"FDM formation, combination of veliparib with dexamethasone versus each alone","[2]; WE present, microscopy (FIG. 6)",even superior to each substance alone
same,fibroblast-derived matrix (FDM) formation,[2]; presence of WE #78 (FIG. 9),strong positive effect
same,fibroblast-derived matrix (FDM/ECM) formation,"[2]; presence of wound exudate, WE not specified (FIG. 6: microscopy)",“cleaned up” WE-induced fibroblast matrix inhibition
